The text below walks through data of ChEMBL document CHEMBL1136170, “5-aryl thiazolidine-2,4-diones: discovery of PPAR dual alpha/gamma agonists as antidiabetic agents” (Bioorg Med Chem Lett, 2003).

For data set [1], the target named is T1, Peroxisome proliferator-activated receptor alpha (Homo sapiens, UniProt Q07869).
T1 sequence (Q07869 whole entry): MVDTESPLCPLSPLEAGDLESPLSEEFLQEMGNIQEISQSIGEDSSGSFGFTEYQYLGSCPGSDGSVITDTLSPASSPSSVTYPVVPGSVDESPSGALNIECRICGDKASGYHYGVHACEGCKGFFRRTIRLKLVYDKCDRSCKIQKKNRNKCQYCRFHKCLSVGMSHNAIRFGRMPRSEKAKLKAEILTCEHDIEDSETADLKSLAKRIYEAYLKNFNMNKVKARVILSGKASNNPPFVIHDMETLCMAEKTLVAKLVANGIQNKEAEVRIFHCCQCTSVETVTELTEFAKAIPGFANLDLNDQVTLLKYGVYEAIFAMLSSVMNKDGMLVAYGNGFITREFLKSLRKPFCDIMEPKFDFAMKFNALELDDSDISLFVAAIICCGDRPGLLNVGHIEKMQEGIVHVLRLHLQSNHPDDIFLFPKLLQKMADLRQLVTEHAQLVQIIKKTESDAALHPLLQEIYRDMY
The experiment in a line: In vitro binding affinity against human Peroxisome proliferator activated receptor alpha.

Data set [2] is described as follows: Plasma clearance in fasted male Sprague dawely rats on administration of 0.5 mg/Kg i.v. of the compound. The class given is ADME, organism-based. Conditions: Sprague-Dawley, rat, iv, read-out: Clp.
Data set [3] relates to Rattus norvegicus. In words: Dose-normalized AUC measured in fasted male Sprague dawely rats when the compound was administered at a peroral dose of 2 mg/Kg. The format is ADME, organism-based. Conditions: in vivo, po.
The nature of data set [4]: Half life was measured in fasted male administration of compound 0.5 mg/Kg i.v. The class given is ADME, organism-based. Conditions: rat, in vivo, iv.
Data set [5] can be described thus: Oral bioavailability in rat (Sprague-Dawley) (fasted male) (dose 2 mg/kg). The class given is ADME, organism-based. Conditions: in vivo.
The test system of data set [6] is Mus musculus. In words: In vivo efficacy as percent glucose correction in male db/db mice at 10 mg/kg oral dose. The format is functional.
The test system of data set [7] is Mus musculus. In words: In vivo efficacy as percent triglyceride correction in male db/db mice at 10 mg/kg oral dose. The format is functional.
Data set [8] deals with T2, Peroxisome proliferator-activated receptor delta (Homo sapiens, UniProt Q03181).
T2 sequence (Q03181 whole entry): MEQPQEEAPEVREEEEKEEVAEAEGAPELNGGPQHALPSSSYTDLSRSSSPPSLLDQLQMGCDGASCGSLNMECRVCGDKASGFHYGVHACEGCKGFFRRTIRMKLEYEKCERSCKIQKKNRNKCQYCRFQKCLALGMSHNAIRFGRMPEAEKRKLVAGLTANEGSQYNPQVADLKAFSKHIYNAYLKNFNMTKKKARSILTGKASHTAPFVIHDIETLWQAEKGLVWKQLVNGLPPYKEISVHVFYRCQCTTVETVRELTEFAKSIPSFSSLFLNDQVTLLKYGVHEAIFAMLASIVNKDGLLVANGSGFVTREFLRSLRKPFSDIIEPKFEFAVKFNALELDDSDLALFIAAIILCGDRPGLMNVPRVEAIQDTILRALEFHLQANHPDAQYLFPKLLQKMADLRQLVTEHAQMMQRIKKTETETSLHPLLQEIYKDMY
Description: In vitro transactivation of human Peroxisome proliferator activated receptor delta measured in PPAR-GAL4 chimeric COS-1 cells

Data set [9] deals with T2, Peroxisome proliferator-activated receptor delta. This is another data set of the same source.
Description: In vitro binding affinity against human Peroxisome proliferator activated receptor delta
A short description of data set [10]: Bioavailability in fasted male administration of 2 mg/Kg of compound p.o. The class given is ADME, organism-based. Conditions: rat, in vivo, po.
In data set [11] the test system is Rattus norvegicus. The experiment in a line: Dose-normalized AUC measured in fasted male Sprague dawely rats when the compound was administered at a peroral of 2 mg/Kg. The format is ADME, organism-based. Conditions: in vivo, po.

Molecules are shown by their SMILES.

`CCCc1cc(Oc2ccccc2)ccc1OCCCOc1ccc(C2SC(=O)NC2=O)cc1` (configuration not stated) registered an IC50 in data set [1] of over 50 µM.
With `CCCc1cc(Oc2ccc(Cl)c(Cl)c2)ccc1OCCCOc1cccc(C2SC(=O)NC2=O)c1` (configuration not stated), the clearance in data set [2] was determined as 7.9 mL/min/kg. Besides, the nAUC in the data set with Rattus norvegicus [3] came out at 0.8 uMh. In [4], this molecule gave a half-life of 2.2 h. The molecule further displayed a bioavailability in [5] of 19%. In addition, in the data set with Mus musculus [6], the Glucose correction was 79%. In the data set with Mus musculus [7], this molecule had a Triglyceride correction of 77%. This molecule also registered an EC50 in [8] of over 3 µM. In data set [9], this molecule yielded an IC50 of over 50 µM.
With `CCCc1cc(Oc2ccc(CC(C)C)cc2)ccc1OCCCOc1cccc(C2SC(=O)NC2=O)c1` (configuration not stated), the IC50 in [9] was over 50 µM.
For `CCCc1cc(Oc2ccc(Cl)c(C)c2)ccc1OCCCOc1cccc(C2SC(=O)NC2=O)c1` (configuration not stated), the EC50 in data set [8] was over 3 µM. In addition, the IC50 in data set [9] was over 50 µM.
On to `CCCc1cc(Oc2ccccc2)ccc1OCCCCOc1cccc(C2SC(=O)NC2=O)c1` (configuration not stated), for which the IC50 in data set [9] amounted to 3 µM.
Regarding `CCCc1cc(Oc2ccc(Cl)cc2)ccc1OCCCOc1cccc(C2SC(=O)NC2=O)c1` (configuration not stated), in data set [2], the clearance is 9.7 mL/min/kg. For the same molecule, in the data set on Rattus norvegicus [3], the nAUC was found to be 1.5 uMh. The same molecule had a half-life in data set [4] of 2.9 h. This molecule also showed a bioavailability in data set [5] of 44%. In addition, the Glucose correction with Mus musculus [6] was determined as 86%. In the data set with Mus musculus [7], the Triglyceride correction is 68%. The EC50 in [8] was over 3 µM. Moreover, in [9], the IC50 is over 50 µM.
The molecule `CCCc1cc(Oc2ccc(OC)cc2)ccc1OCCCOc1cccc(C2SC(=O)NC2=O)c1` (configuration not stated) came in with an EC50 in data set [8] of over 3 µM. Also, the IC50 in data set [9] is over 10 µM.
Take `CCCc1cc(Oc2ccccc2)ccc1OCCCOc1cccc(C2SC(=O)NC2=O)c1` (configuration not stated): the clearance in data set [2] worked out at 9.5 mL/min/kg. The same molecule came in with a nAUC with Rattus norvegicus [3] of 21.78 uMh. Moreover, the half-life in data set [4] was 1.5 h. In data set [10], this molecule showed a bioavailability of 62%. Moreover, the Glucose correction in the data set on Mus musculus [6] was 91%. In the data set on Mus musculus [7], the Triglyceride correction turned out to be 67%.
In data set [8], `CCCc1cc(Oc2ccc(O)cc2)ccc1OCCCOc1cccc(C2SC(=O)NC2=O)c1` (configuration not stated) returned an EC50 of over 3 µM. In [9], this molecule showed an IC50 of 3.8 µM.
As for `CCCc1cc(Oc2ccc(C(C)C)cc2)ccc1OCCCOc1cccc(C2SC(=O)NC2=O)c1` (configuration not stated), the clearance in data set [2] is 6.1 mL/min/kg. Moreover, in the data set on Rattus norvegicus [11], the nAUC amounted to 0.3 uMh. The molecule further had a half-life in data set [4] of 3.3 h. The same molecule returned a bioavailability in data set [5] of 6%. In data set [8], this molecule displayed an EC50 of over 3 µM. In [9], this molecule returned an IC50 of over 50 µM.
`CCCc1cc(Oc2ccc(C(C)(C)C)cc2)ccc1OCCCOc1cccc(C2SC(=O)NC2=O)c1` (configuration not stated) yielded an IC50 in data set [9] of over 50 µM.
For the molecule `O=C1NC(=O)C(c2cccc(OCCCOc3ccc(Oc4ccccc4)cc3)c2)S1` (configuration not stated), in data set [9], the midpoint of inhibition, the IC50, lay at 0.19 µM.
With `CCCc1cc(Oc2ccc(F)c(C)c2)ccc1OCCCOc1cccc(C2SC(=O)NC2=O)c1` (configuration not stated), the clearance in data set [2] came out at 10.5 mL/min/kg. In addition, the nAUC with Rattus norvegicus [3] was 0.6 uMh. The molecule also showed a half-life in [4] of 3.3 h. The molecule further displayed a bioavailability in [5] of 20%. Also, the Glucose correction in the data set on Mus musculus [6] is given as 78%. The molecule also registered a Triglyceride correction in the data set with Mus musculus [7] of 69%. Also, the EC50 in [8] was over 50 µM. Besides, the IC50 in data set [9] was over 50 µM.
`CCCc1cc(Oc2ccc(F)cc2)ccc1OCCCOc1cccc(C2SC(=O)NC2=O)c1` (configuration not stated): in [2], the clearance worked out at 10.2 mL/min/kg. This molecule gave a nAUC in the data set with Rattus norvegicus [3] of 3.3 uMh. Besides, the half-life in data set [4] is 1.3 h. In data set [5], this molecule gave a bioavailability of 66%. Moreover, in the data set on Mus musculus [6], the Glucose correction turned out to be 90%. Further, in the data set with Mus musculus [7], the Triglyceride correction is reported as 76%. Besides, in data set [8], the EC50 is over 3 µM. The same molecule displayed an IC50 in data set [9] of over 5 µM.
The molecule `CCCc1cc(Oc2ccc(-c3ccccc3)cc2)ccc1OCCCOc1cccc(C2SC(=O)NC2=O)c1` (configuration not stated) yielded an EC50 in data set [8] of over 3 µM. In data set [9], this molecule registered an IC50 of over 50 µM.
In data set [8], `CCCc1cc(Oc2ccc(C3CCCC3)cc2)ccc1OCCCOc1cccc(C2SC(=O)NC2=O)c1` (configuration not stated) came in with an EC50 of over 3 µM. Besides, the IC50 in data set [9] was over 50 µM.
In the data set on Rattus norvegicus [3], `CN(CCOc1ccc(CC2SC(=O)NC2=O)cc1)c1ccccn1` (configuration not stated) [ROSIGLITAZONE] displayed a nAUC of 16.4 uMh. Besides, the Glucose correction in the data set with Mus musculus [6] was determined as 67%. In the data set with Mus musculus [7], this molecule showed a Triglyceride correction of 74%.

For orientation: IC50 means the concentration needed to halve the response being measured. Read a low IC50 as greater potency in that assay. The term half-life denotes the time in which the quantity being followed falls by half. Higher therefore signals slow decline. What is called bioavailability is the share of a dose that reaches the circulation, judged against a reference dose that is usually intravenous. A low value points to poor availability. By EC50 is commonly meant the midpoint of the concentration-response curve. Read a low EC50 as higher potency in that assay.
